Read-outs that look alike come from different tables or passages of the source.

The nature of one data set: in vivo. Particulars: male, Sprague-Dawley, rat, po; for AUC(0-t): AUClast.
For data set [1] the following is noted: single oral dose, comparable for all doses, cited from earlier work.
Setting [2] is: 1000 mg/kg, Plasma concentration.

`Cc1c(-c2ccc(O)cc2)n(Cc2ccc(OCCN3CCCCC3)cc2)c2ccc(O)cc12` [Pipendoxifene, 2-(4-hydroxyphenyl)-3-methyl-1-[[4-(2-piperidin-1-ylethoxy)phenyl]methyl]indol-5-ol]: in the data set “in vivo” (250 mg/kg), the AUC(0-t) (in general, the area under the concentration-time curve up to a stated or last time point) turned out to be 4120 ng·h/mL and the peak level (Cmax) was 336 ng/mL. The time of peak concentration (Tmax) – broadly, the time from dosing to the highest level – in the data set “in vivo” (250 mg/kg, tmax) amounted to 6 h. Further, in “in vivo” (500 mg/kg), the peak concentration (Cmax) (commonly the maximum level reached in the sampled fluid or tissue) is 462 ng/mL. Further, the Tmax in the data set “in vivo” (500 mg/kg, tmax) is 6 h. The compound further came in with an AUC(0-t) in “in vivo” (750 mg/kg) of 5260 ng·h/mL. Besides, the Tmax in “in vivo” (750 mg/kg, tmax) was 6 h. In “in vivo” (1000 mg/kg), the AUC(0-t) is 5700 ng·h/mL and the peak level (Cmax) was 452 ± 75 ng/mL. Moreover, the area under the curve AUC(0-inf) (in general, total exposure, with the tail of the curve extrapolated) in the data set “in vivo” (1000 mg/kg, AUC∞) is 7730 ng·h/mL. In the data set “in vivo” (setting [2]), this compound registered a concentration at 0.25 h of 5.05 ng/mL, a concentration at 0.25 hr of 5.05 ng/mL, a concentration at 2 h of 226 ng/mL and a concentration at 2 hr of 226 ng/mL. Besides, in “in vivo” (setting [2]), the concentration at 4 h was 335 ng/mL, the concentration at 4 hr stood at 335 ng/mL, the concentration at 6 h came to 489 ng/mL and the concentration at 8 h was 295 ng/mL. In “in vivo” (setting [2]), the concentration at 8 hr stood at 295 ng/mL. The Tmax in the data set “in vivo” (1000 mg/kg, tmax) worked out at 6 h. Moreover, the Tmax in “in vivo” (Mean Tmax (plasma), range) is 5.3 to 6 h. In data set [1], the t1/2 was 30 ± 16 h. Besides, the t1/2 in data set [1] (listed as pipendoxifene) is 30 h.

The record behind these values is US20250025454A1 (priority 2021, published 2025).
